{"source": "patent US20240180914A1", "about": "“ORAL GEL COMPOSITION AND USE THEREOF” (DR. KURT WOLFF GMBH & CO. KG, priority 2021, published 2024)", "key": {"[1]": {"tested_on": "human epidermal HaCaT keratinocytes", "test": "fluorometric CyQUANT cell proliferation study (DNA content)", "format": "cell-based", "settings": "0.00005, 0.0005, 0.005% caffeine; 24, 48 or 72 hours; best effects after 72 hours", "description": "To investigate the effect of caffeine on cell proliferation of human epidermal HaCaT keratinocytes, human HaCaT keratinocytes were subjected to a CyQUANT viability assay, wherein the following series of experiments were performed: • 1. P22 Experiment 1 (biological assay 1) • 2. P24 Experiment 2 (biological assay 2).\nThe trial durations were 24, 48 or 72 hours.\nThe study was carried out by fluorometric CyQUANT study, wherein the DNA content was measured, reflecting cell proliferation."}, "VEGF [2]": {"tested_on": "VEGF", "test": "Q-PCR, VEGF mRNA expression in HaCaT cell lysates", "format": "cell-based, human", "settings": "all caffeine concentrations; 24 hours; Experiments 1 and 2", "description": "(§1) For Q-PCR: Determination of VEGF, HGF and EGF mRNA expression in cell lysates • 2. For ELISA: Determination of VEGF, HGF and EGF protein synthesis/secretion into the culture medium\n(§2) The initial cell count was • 1. for Q-PCR: 140,000 cells/well in 1500 μl culture medium • 2. for ELISA: 140,000 cells/well in 1.500 μl culture medium.\n(§3) The trial duration for • 1. Q-PCR was 24 hours (single treatment at time 0 h) • 2. ELISA was 48 hours (double treatment at time 0 h and 24 h without changing the medium).\n(§4) The study was carried out • 1. for Q-PCR by determining VEGF mRNA expression in cell lysates • 2. for ELISA by determining VEGF protein synthesis/secretion in the culture medium."}, "VEGF [3]": {"tested_on": "VEGF", "test": "ELISA, VEGF protein synthesis/secretion into the culture medium of HaCaT", "format": "cell-based, human", "settings": "48 hours", "description": "as §1, §2, §3, §4"}, "GM-CSF [4]": {"tested_on": "GM-CSF", "test": "Q-PCR, experiments regarding GM-CSF in HaCaT", "format": "cell-based, human", "settings": "all tested caffeine concentrations; 24 h; Experiments 1 and 2", "description": "as §1, §2, §3"}, "GM-CSF [5]": {"tested_on": "GM-CSF", "test": "ELISA, experiments regarding GM-CSF in HaCaT", "format": "cell-based, human", "settings": "48 h", "description": "as §1, §2, §3"}, "TGFβ1 [6]": {"tested_on": "TGFβ1", "test": "Q-PCR, TGFβ1 mRNA expression in HaCaT", "format": "cell-based, human", "settings": "all tested caffeine concentrations; 24 h; Experiments 1 and 2"}, "TGFβ2": {"tested_on": "TGFβ2", "test": "Q-PCR, TGFβ2 mRNA expression in HaCaT", "format": "cell-based, human"}, "TGFβ1 [7]": {"tested_on": "TGFβ1", "test": "ELISA, TGFβ1-specific protein in HaCaT", "format": "cell-based, human", "settings": "48 h; both experiments"}, "HGF [8]": {"tested_on": "HGF", "test": "Q-PCR, HGF mRNA expression in HaCaT cell lysates", "format": "cell-based, human", "settings": "both experiments", "description": "as §1, §2, §3"}, "HGF [9]": {"tested_on": "HGF", "test": "ELISA, HGF protein synthesis/secretion in HaCaT", "format": "cell-based, human", "settings": "both experiments", "description": "as §1, §2, §3"}, "TNFα [10]": {"tested_on": "TNFα", "test": "Q-PCR, TNFα-specific mRNA in HaCaT", "format": "cell-based, human", "settings": "both experiments"}, "TNFα [11]": {"tested_on": "TNFα", "test": "ELISA, TNFα-specific protein in HaCaT", "format": "cell-based, human", "settings": "both experiments"}, "[12]": {"tested_on": "human epidermal HaCaT keratinocytes", "test": "colourimetric MTT viability study", "method": "To investigate the effect of caffeine on the biological functions of human epidermal HaCaT keratinocytes, cell experiments were performed on human epidermal HaCaT keratinocytes, wherein the following studies were carried out: • 1. P13-A biological assay 1 with two independent studies • 2. P13-B biological assay 2 with two independent studies.\nThe initial cell count was 5000 cells/well in 100 μl culture medium.\nThe culture medium was HaCaT medium (DMEM with the addition of 10% FBS, 1% penicillin-streptomycin, 0.5% fungizone).\nThe treatment groups were as follows: • 1. Control group (CTRL) • 2. 0.00005% caffeine • 3. 0.0001% caffeine • 4. 0.0005% caffeine • 5. 0.001% caffeine • 6. 0.005% caffeine\nThe trial durations were 24, 48 and 72 hours.\nThe study took the form of a colourimetric MTT study."}, "[13]": {"settings": "0.0005% caffeine, both experiments"}}}
{"smiles": "Cn1c(=O)c2c(ncn2C)n(C)c1=O", "note": "[caffeine]", "values": [{"measurement": "cell proliferation (DNA content)", "setting": "[1]", "value": "appears to promote cell proliferation"}, {"measurement": "mRNA expression of VEGF compared to the control group", "setting": "VEGF [2]", "value": "appear to increase mRNA expression of VEGF"}, {"measurement": "VEGF protein production/secretion compared to the control group", "setting": "VEGF [3]; [13]", "value": "increases VEGF protein production/secretion"}, {"measurement": "VEGF protein production/secretion compared to the control group", "setting": "VEGF [3]; 0.005% caffeine, Experiment 2", "value": "also showed an effect"}, {"measurement": "mRNA expression of VEGF compared to the control group (under experiments regarding GM-CSF)", "setting": "GM-CSF [4]", "value": "apparently increased the mRNA expression of VEGF"}, {"measurement": "VEGF protein production/secretion compared to the control group (under experiments regarding GM-CSF)", "setting": "GM-CSF [5]; 0j.005% caffeine, Experiment 2", "value": "also showed an effect"}, {"measurement": "VEGF protein production/secretion compared to the control group (under experiments regarding GM-CSF)", "setting": "GM-CSF [5]; [13]", "value": "increased VEGF protein production/secretion"}, {"measurement": "mRNA expression of TGFβ1", "setting": "TGFβ1 [6]", "value": "None of the tested caffeine concentrations changed the mRNA expression of TGFβ1"}, {"measurement": "mRNA expression of TGFβ2", "setting": "TGFβ2; certain caffeine concentrations, 24 h, Experiment 2", "value": "apparently increase mRNA expression of TGFβ2"}, {"measurement": "synthesis/production/secretion of TGFβ2 (overall conclusion)", "setting": "TGFβ2; despite contradictory results in the two Q-PCR experiments", "value": "most likely does not alter"}, {"measurement": "level of TGFβ1-specific protein", "setting": "TGFβ1 [7]", "value": "below the detection limit"}, {"measurement": "expression of HGF-specific mRNA", "setting": "HGF [8]", "value": "below the detection limit"}, {"measurement": "expression of HGF-specific protein", "setting": "HGF [9]", "value": "below the detection limit"}, {"measurement": "expression of TNFα-specific mRNA", "setting": "TNFα [10]", "value": "below the detection limit"}, {"measurement": "expression of TNFα-specific protein", "setting": "TNFα [11]", "value": "below the detection limit"}, {"measurement": "cytotoxicity", "setting": "[12]; 0.00005-0.005% caffeine, 24, 48 and 72 hours", "value": "none of the concentrations tested showed cytotoxicity"}, {"measurement": "number of viable cells", "setting": "[12]; certain concentrations of caffeine", "value": "increased the number of viable cells"}]}
